Test results from patent publication US5466716A, “Liposomal trimethylsphingosine” (The Biomembrane Institute, priority 1994, dated 1995).
Entries after “also recorded” stand apart in the source; their conditions may differ.

Tests used:
neutrophils [1] = assay: neutrophil superoxide production (cytochrome C reduction); format: cell-based, human
Method: FIGS. 13A and 13B depict the effect of various reagents on neutrophil function. In FIG. 13A, the effect of TMS on O2 production was determined by monitoring the superoxide-mediated reduction of cytochrome C (Clifford, Meth. Enz., 105, 393, 1981) by 10^6 neutrophils/ml at OD550 and an extinction coefficient of 21000/M/cm in a Beckman DU-50 spectrophotometer. The cells were preincubated for 10 minutes at room temperature with the noted concentrations of TMS prior to stimulation with 1 μM PMA (time 0).
Human neutrophils were obtained from normal male adults. Heparinized peripheral blood was mixed gently with an equal amount of 1% dextran solution in PBS in a 60 ml injection syringe. The mixture was allowed to sit vertically for 60 to 90 minutes at 37° C. The upper phase, which is rich in white blood cells, was mounted gently on the same volume of Ficoll-Paque (Pharmacia LKB, Uppsala, Sweden) in Falcon 2095 plastic test tubes (Becton Dickinson Labware, Lincoln Park, N.J.). Centrifugation at 450 g for 30 min at 4° C. brought the neutrophils to the bottom of the tubes. The upper phase and interface, which contains lymphocytes, were removed carefully by aspiration.
Superoxide production by neutrophils was quantitated by monitoring superoxide-mediated reduction of cytochrome C (Clifford, supra, in which the reduction is manifest as an increase in absorbance at 550 nm at an extinction coefficient of 21000/M/cm). Measurements were carried out with a Beckman DU-50 spectrophotometer at 37° C. using ≈1×10^6 neutrophils per ml. The cells were allowed to equilibrate for 10 min with TMS, or other effectors, prior to addition of 1 μM of PMA.

neutrophils [2] = assay: neutrophil O2 consumption (Clark-type electrode); format: cell-based, human
Method: FIG. 14 depicts the effect of various reagents on neutrophil O2 consumption. The Clark-type electrode and oxygen monitor were calibrated using air-saturated water according to the manufacturer's recommendations (Y.S.I. Inc., Yellow Springs, Ohio. A reading of 100% was considered to be equal to the concentration of oxygen in air-saturated water.
O2 consumption was measured using a Clark-type electrode with a Y.S.I. model P300 biological oxygen monitor and a micro oxygen chamber assembly (Y.S.I. Inc., Yellow Springs, Ohio). Assays were performed at 37° C. with ≈6×10^6 neutrophils per ml in a total volume of 600 μl. The cell suspensions, in Eppendorf test tubes, were warmed at 37° C. for several minutes before being applied to the microchamber. Effectors were injected carefully using a Hamilton syringe and stirred well with a microstirrer at a speed of ≈240 rpm. The cell suspensions were pre-incubated with effectors for 5 min prior to addition of PMA to a final concentration of 1.0 μM.

BL6 melanoma cells = assay: melanoma BL6 cell proliferation (thymidine incorporation); format: cell-based; settings: BL6, FIG. 5A
Source text: FIGS. 5A and 5B depict the effect of N,N,N-trimethylsphingosine (open circles), N,N-dimethylsphingosine (solid circles) and sphingosine (open squares) on two melanoma cell lines, BL6, a highly malignant cell line (in FIG. 5A) and F1, a cell line of low malignancy, (in FIG. 5B). Cell proliferation was evidenced by tritiated thymidine incorporation into DNA.
(§1) An in vitro assay relying on tritiated thymidine incorporation can be used to ascertain the effect of various compounds on cell proliferation. Briefly, tumor cells are seeded in flat bottom 96 well plates (Corning, N.Y.) at a concentration of 2×10^4 cells per well. The cells are cultured for 2 days in DMEM containing various concentrations of sphingoid, which is added as a PBS solution. The medium then is supplemented with tritiated thymidine at a concentration of 0.5 μCi per well. Following a six hour incubation the cells are collected using the PHD Cell Harvester (Cambridge Technology, Cambridge, Mass.) and amounts of incorporated radioactivity are determined after adding a suitable cell lysing agent and scintillation cocktail, such as ScintiVerse BD (Fisher Scientific, Fairlawn, Calif.) which performs both functions.
Certain cancer cells show a higher metastatic potential and invasive capability than others. For example the BL6 and F10 melanoma cell lines are highly metastatic and invasive. […]

[3] = tested on: human gastric cancer cell line MKN-74; assay: tritiated thymidine incorporation, tumor cell growth (MKN-74); format: cell-based; settings: MKN-74, FIG. 2C
Source text: FIGS. 2A-2C show the effect of sphingosine derivatives on human tumor cell growth. In FIG. 2A the growth of human colonic cancer cell line COLO-205 was monitored. In FIG. 2B the growth of human lung cancer cell line LU-65 was monitored. In FIG. 2C the growth of human gastric cancer cell line MKN-74 was monitored. In each Figure the ordinate represents the percent inhibition of tritiated thymidine incorporation, the solid circles represent sphingosine, the open circles represent N,N-dimethylsphingosine and the triangles represent N,N,N-trimethylsphingosine.
as §1, with “functions. […]” for “functions.”

CCCCCCCCCCCCC/C=C/[C@@H](O)[C@H](CO)[N+](C)(C)C [TMS, N,N,N-trimethylsphingosine]
inhibition of oxyradical production (neutrophils [1]; 15 μM, FIG. 13B): inhibited immediately
inhibition of superoxide production (neutrophils [1]; 20 μM): completely abolishes superoxide production
neutrophil superoxide production (neutrophils [1]; Example 5): profound effect
inhibition of superoxide production (neutrophils [1]; dose-dependence, FIGS. 13A and 13B): inhibited by TMS in a dose-dependent manner
neutrophil O2 consumption (neutrophils [2]; Example 6): noted effect
inhibition of PMA-dependent enhancement of O2 consumption (neutrophils [2]; PMA, FIG. 14): inhibited strongly
inhibition of cell growth (BL6 melanoma cells): more effective than DMS and sphingosine; also recorded: BL6 cells were more sensitive to TMS treatment
inhibition of tumor cell growth [3]: superior to sphingosine; also recorded: showed an advantage over DMS
